Here are results for five molecules from patent publication EP0326331B1, “Substituted quinolines and cinnolines” (Dow AgroSciences LLC, priority 1988, dated 1989).

Type in all cases: in vivo
Experiment [1] has as its system Erysiphe graminis tritici (powdery mildew). Put plainly: Test 1 greenhouse foliar spray screen, powdery mildew on wheat. The settings on record: for POWD MDEW: disease control rating, foliar spray on wheat, 400 ppm (+++ at 100 ppm); for pest or weed control at 400 ppm: Blumeria graminis, foliar, Test 1, foliar spray on wheat, disease control rating at 400 ppm / 100 ppm, read-out: POWD MDEW.

The subject of experiment [2] is Pyricularia oryzae (rice blast). The experiment in a line: whole plant or invertebrate. Conditions: for RICE BLAST: disease control rating, foliar spray on rice, 400 ppm (+++ at 100 ppm); for pest or weed control at 400 ppm: Pyricularia oryzae, foliar, read-out: RICE BLAST, Test 1, foliar spray on rice, disease control rating at 400 ppm / 100 ppm.
Experiment [3] concerns Puccinia recondita tritici (leaf rust). Put plainly: Test 1 greenhouse foliar spray screen, leaf rust on wheat. Conditions: for LEAF RUST: disease control rating, foliar spray on wheat, 400 ppm (+++ at 100 ppm); for pest or weed control at 400 ppm: Puccinia recondita, foliar, Test 1, foliar spray on wheat, disease control rating at 400 ppm / 100 ppm.
Experiment [4] relates to Botrytis cinerea (gray mold). Put plainly: Test 1 greenhouse foliar spray screen, gray mold on grape berries. Conditions: for GRAY MOLD: disease control rating, spray on grape berries, 400 ppm (+++ at 100 ppm); for pest or weed control at 400 ppm: Botrytis cinerea, foliar, Test 1, spray on grape berries, disease control rating at 400 ppm / 100 ppm.
Experiment [5] concerns Pseudoperonospora cubensis (downy mildew). Put plainly: Test 1 greenhouse foliar spray screen, downy mildew on squash. Conditions: for DOWN MDEW: disease control rating, foliar spray on squash, 400 ppm (+++ at 100 ppm); for pest or weed control at 400 ppm: Pseudoperonospora cubensis, foliar, Test 1, foliar spray on squash, disease control rating at 400 ppm / 100 ppm, read-out: DOWN MDEW.

The next experiment deals with plant pathogens. Put plainly: Fungicidal efficacy against a broad spectrum of plant pathogens (summary of screen). Conditions: summary statement in the description.
Experiment [6] relates to southern armyworm (Spodopetra eridania Cramer). Put plainly: Mite/insect screen, SAW. Conditions: Spodoptera eridania, percent mortality, read-out: SAW RESULTS %. The essentials: (§1)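 Compounds dissolved in 50:50 acetone/alcohol containing sulfonate/nonionic emulsifier blends, then diluted with water to the indicated concentrations. Leaves sprayed on both surfaces to runoff at 10 psi and dried one hour. Percent mortality scored after standard exposure periods.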

For experiment [7], the system named is Twospotted spider mites (Tetranychus urticae Koch). Put plainly: Mite/insect screen, SM. The settings on record: Tetranychus urticae, percent mortality, read-out: SM RESULTS %. The essentials:
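Activity is expressed as percent mortality at the indicated spray concentrations. Plants are sprayed to runoff on upper and lower leaf surfaces with aqueous dilutions of an acetone/alcohol emulsifiable formulation, then dried for one hour.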

Experiment [8] has as its system melon aphids (Aphis gossypii Glover). The experiment in a line: Mite/insect screen, MA. The settings on record: Aphis gossypii, percent mortality, read-out: MA RESULTS %. The essentials: as §1
For a further experiment, the system named is corn rootworm. Put plainly: Mite/insect screen, CRW. The settings on record: percent mortality, read-out: CRW RESULTS %. The essentials: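 Compounds were dissolved in 50:50 acetone/alcohol containing sulfonate/nonionic emulsifier blends (23 g/L plus 13 g/L), then diluted with water to the test concentrations. Percent mortality was scored after standard exposure periods.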

Setting [9] is: foliar, rate 400 ppm, foliar spray on squash.

Structures are written as SMILES. Like-named read-outs stand apart in the source and are kept apart here.

`Fc1cccc2c(NCCc3cccc(Oc4ccccc4)c3)ccnc12` [Example 39, 8-fluoro-N-[2-(3-phenoxyphenyl)ethyl]-4-quinolinamine]: the “POWD MDEW” value in experiment [1] is listed as “+++ (90-100% control at 100 ppm)”. For the same molecule, the “RICE BLAST” value in [2] is “+++ (90-100% control at 100 ppm)”. The “LEAF RUST” value in [3] was “+++ (90-100% control at 100 ppm)”. In addition, the “GRAY MOLD” value in [4] is on record as “- (0-19% control at 400 ppm)”. Moreover, the “DOWN MDEW” value in [5] was “+++ (90-100% control at 100 ppm)”. The “activity against a broad spectrum of plant pathogens” value (shortened to “activity against a broad spectrum”) in the experiment with plant pathogens is reported as “particularly excellent activity”. Besides, the mortality at 200 ppm is 0% in experiment [6] (SAW, SM & MA RATE 200 PPM); 0% in experiment [7] (SAW, SM & MA RATE 200 PPM); 0% in experiment [8] (SAW, SM & MA RATE 200 PPM). In addition, the mortality at 400 ppm in experiment [6] (SAW, SM & MA RATE 400 PPM) came to 0%; in [7] (SAW, SM & MA RATE 400 PPM) it was 0%; in experiment [8] (SAW, SM & MA RATE 400 PPM) it was 0%. In addition, the mortality at 12 ppm in the experiment with corn rootworm (CRW RATE 12.00 PPM) is 0%. The mortality at 24 ppm in the experiment with corn rootworm (CRW RATE 24.00 PPM) is 0%.
As to `Fc1cccc2c(NCCc3cccc(-c4ccccc4)c3)ccnc12` [Example 72, N-[2-(1,1'-biphenyl)-3-ylethyl]-8-fluoro-4-quinolinamine], in [1], the “POWD MDEW” value is “++ (90-100% control at 400 ppm)”. In experiment [2], the “RICE BLAST” value was “+++ (90-100% control at 100 ppm)”. Besides, the “LEAF RUST” value in experiment [3] was “+++ (90-100% control at 100 ppm)”. In addition, the “GRAY MOLD” value in experiment [4] is recorded as “- (0-19% control at 400 ppm)”. Moreover, the “DOWN MDEW” value in [5] is given as “+++ (90-100% control at 100 ppm)”. In the experiment with plant pathogens, the “activity against a broad spectrum” value was “particularly excellent activity”. In addition, the mortality at 400 ppm in experiment [6] (SAW, SM & MA RATE 400 PPM) worked out at 0%; in experiment [7] (SAW, SM & MA RATE 400 PPM), 0%; in experiment [8] (SAW, SM & MA RATE 400 PPM) it was 0%. Also, the mortality at 24 ppm in the experiment with corn rootworm (CRW RATE 24.00 PPM) came out at 0%.
On to `Fc1cccc2c(OCCc3ccccc3C(F)(F)F)ccnc12` [Example 206, 8-fluoro-4-[2-(2-(trifluoromethyl)phenyl)ethoxy]quinoline], for which the pest or weed control at 400 ppm in [1] fell in the range of 90 to 100%; in experiment [2] it was 90 to 100%; in experiment [3] it was 90 to 100%; in experiment [4] it was 0 to 19%; in experiment [5] it was 90 to 100%. In addition, in the experiment with plant pathogens, the “activity against a broad spectrum” value is recorded as “particularly excellent activity”. In addition, the mortality at 400 ppm in [6] (setting [9]), in [7] (setting [9]) and in [8] (setting [9]) was 0% each time. In addition, the mortality at 24 ppm with corn rootworm (CRW rate 24.00 ppm) was 0%.
`Cc1cccc(CCOc2ccnc3c(F)cccc23)c1` [Example 224, 8-fluoro-4-[2-(3-methylphenyl)ethoxy]quinoline]: the pest or weed control at 400 ppm lay in the range of 90 to 100% in experiment [1]; 90 to 100% in experiment [2]; 90 to 100% in experiment [3]; 0 to 19% in [4]; 90 to 100% in experiment [5]. Besides, in the experiment on plant pathogens, the “activity against a broad spectrum” value was “particularly excellent activity”. Besides, the mortality at 400 ppm in experiment [6] (setting [9]), in experiment [7] (setting [9]) and in [8] (setting [9]) was 0% each time. In addition, in the experiment on corn rootworm (CRW rate 24.00 ppm), the mortality at 24 ppm turned out to be 0%.
As to `Fc1ccccc1CCOc1ccnc2c(F)cccc12` [Example 225, 8-fluoro-4-[2-(2-fluorophenyl)ethoxy]quinoline], the pest or weed control at 400 ppm in experiment [1] lay in the range of 90 to 100%; in [2], 90 to 100%; in [3] it was 90 to 100%; in experiment [4], 0 to 19%; in [5], 90 to 100%. Further, the “activity against a broad spectrum” value with plant pathogens was “particularly excellent activity”. The mortality at 400 ppm in [6] (setting [9]), in experiment [7] (setting [9]) and in experiment [8] (setting [9]) was 0% throughout. Besides, the mortality at 24 ppm in the experiment on corn rootworm (CRW rate 24.00 ppm) was determined as 0%.
